Reference: US20240124460A1, “METHODS AND COMPOSITIONS FOR TARGETED PROTEIN DEGRADATION” (Ranok Therapeutics (Hangzhou) Co. Ltd., priority 2020, published 2024)
Like-named read-outs stand apart in the source and are kept apart here.

Assays:
[1] = tested on: MV-4-11 human acute myeloid leukemia; assay: MV-4-11 CCK-8 proliferation assay; type: cell-based; conditions: Homo sapiens, MV4-11; MV-4-11 cells, 72 hr
Method: (§1) The following cancer cell lines were employed: A549 human lung carcinoma (ATCC, #CCL-185); BT-474 human breast carcinoma (ATCC, #HTB-20); MDA-MB-231 human breast adenocarcinoma (ATCC, #CRM−HTB-26); MDA-MB-468 human breast adenocarcinoma (ATCC, #HTB-132); MV-4-11 human acute myeloid leukemia (ATCC, #CRL-9591); and U-87 MG human glioblastoma (ATCC, #HTB-14). Cell lines were cultured essentially according to ATCC recommendations.
(§2) 3-fold serial dilutions of each test compound were prepared ranging from 20 μM to 1.02 nM.
(§3) % Inhibition=100−(D−B)/(S−B)*100%. • S: Absorbance of cells treated with DMSO • D: Absorbance of compound-treated cells • B: Absorbance of medium with DMSO without cells

[2] = tested on: U-87 MG human glioblastoma; assay: U87 MG CCK-8 proliferation assay; type: cell-based; conditions: Homo sapiens, U-87 MG cells, read-out: U87MG CCK-8
Method: as §1, §2, §3

## CCOc1cc(N2CCC(C(=O)N3CCC(CN4CCN(Cc5ccc(-n6c(C(=O)NC(C)C(F)(F)F)nnc6-c6cc(CC)c(OC(=O)C(C)C)cc6O)cc5)CC4)CC3)CC2)ccc1Nc1ncc2c(n1)N(S(C)(=O)=O)c1ccccc1C(=O)N2C (stereo not shown) [Compound 161, 4-(4-(4-((4-((1-(1-(3-ethoxy-4-((5-methyl-11-(methylsulfonyl)-6-oxo-6,11-dihydro-5H-benzo[e]pyrimido[5,4-b][1,4]diazepin-2-yl)amino)phenyl)piperidine-4-carbonyl)piperidin-4-yl)methyl)piperazin-1-yl)methyl)phenyl)-5-((1,1,1-trifluoropropan-2-yl)carbamoyl)-4H-1,2,4-triazol-3-yl)-2-ethyl-5-hydroxyphenyl isobutyrate]
[1]
  EC50: < 100 nM
[2]; U-87 MG, 72 h
  EC50: 100 to 1000 nM

## CCOc1cc(N2CCC(C(=O)N3CCN(Cc4ccc(-n5c(O)nnc5-c5cc(C(C)C)c(OP(=O)(O)O)cc5O)cc4)CC3)CC2)ccc1Nc1ncc2c(n1)N(C)c1ccccc1C(=O)N2C [Compound 180, 4-(4-(4-((4-(1-(4-((5,11-dimethyl-6-oxo-6,11-dihydro-5H-benzo[e]pyrimido[5,4-b][1,4]diazepin-2-yl)amino)-3-ethoxyphenyl)piperidine-4-carbonyl)piperazin-1-yl)methyl)phenyl)-5-hydroxy-4H-1,2,4-triazol-3-yl)-5-hydroxy-2-isopropylphenyl dihydrogen phosphate]
[1]
  EC50: < 100 nM
[2]; 72 hr
  EC50: < 100 nM

## CCOc1cc(N2CCC(C(=O)N3CCN(Cc4ccc(-n5c(C(=O)NCCN6CCN(C)CC6)nnc5-c5cc(C(C)C)c(O)cc5O)cc4)CC3)CC2)ccc1Nc1ncc2c(n1)N(C)c1ccccc1C(=O)N2C [Compound 167, 5-(2,4-dihydroxy-5-isopropylphenyl)-4-(4-((4-(1-(4-((5,11-dimethyl-6-oxo-6,11-dihydro-5H-benzo[e]pyrimido[5,4-b][1,4]diazepin-2-yl)amino)-3-ethoxyphenyl)piperidine-4-carbonyl)piperazin-1-yl)methyl)phenyl)-N-(2-(4-methylpiperazin-1-yl)ethyl)-4H-1,2,4-triazole-3-carboxamide]
[1]
  EC50: < 100 nM
[2]; U-87 MG, 72 h
  EC50: < 100 nM

## CCOc1cc(CN2CCC(CN3CCN(Cc4ccc(-n5c(C(=O)NCC(F)(F)F)nnc5-c5cc(C(C)C)c(O)cc5O)cc4)CC3)CC2)ccc1Nc1ncc2c(n1)N(S(C)(=O)=O)c1ccccc1C(=O)N2C [Compound 191, 5-(2,4-dihydroxy-5-isopropylphenyl)-4-(4-((4-((1-(3-ethoxy-4-((5-methyl-11-(methylsulfonyl)-6-oxo-6,11-dihydro-5H-benzo[e]pyrimido[5,4-b][1,4]diazepin-2-yl)amino)benzyl)piperidin-4-yl)methyl)piperazin-1-yl)methyl)phenyl)-N-(2,2,2-trifluoroethyl)-4H-1,2,4-triazole-3-carboxamide]
[1]
  EC50: < 100 nM
[2]; U-87 MG, 72 h
  EC50: < 100 nM

## CCCc1cc(-c2nnc(O)n2-c2ccc(CN3CCN(C(=O)C4CCN(c5ccc(Nc6ncc7c(n6)N(C)c6ccccc6C(=O)N7C)c(OCC)c5)CC4)CC3)cc2)c(O)cc1O [Compound 050, 2-((4-(4-(4-(4-(3-(2,4-dihydroxy-5-propylphenyl)-5-hydroxy-4H-1,2,4-triazol-4-yl)benzyl)piperazine-1-carbonyl)piperidin-1-yl)-2-ethoxyphenyl)amino)-5,11-dimethyl-5,11-dihydro-6H-benzo[e]pyrimido[5,4-b][1,4]diazepin-6-one]
[1]
  EC50: < 100 nM
[2]; U-87 MG, 72 h
  EC50: 100 to 1000 nM

## CCOc1cc(N2CCC(C(=O)NCc3ccc(CN(CC)Cc4ccc(-n5c(O)nnc5-c5cc(C(C)C)c(O)cc5O)cc4)cc3)CC2)ccc1Nc1ncc2c(n1)N(S(C)(=O)=O)c1ccccc1C(=O)N2C [Compound 166, N-(4-(((4-(3-(2,4-dihydroxy-5-isopropylphenyl)-5-hydroxy-4H-1,2,4-triazol-4-yl)benzyl)(ethyl)amino)methyl)benzyl)-1-(3-ethoxy-4-((5-methyl-11-(methylsulfonyl)-6-oxo-6,11-dihydro-5H-benzo[e]pyrimido[5,4-b][1,4]diazepin-2-yl)amino)phenyl)piperidine-4-carboxamide]
[1]
  EC50: < 100 nM
[2]; U-87 MG, 72 h
  EC50: 100 to 1000 nM

## CCOc1cc(N2CCC(CN3CCN(Cc4ccc(-n5c(C(=O)NC(C)C(F)(F)F)nnc5-c5cc(CC)c(O)cc5O)cc4)CC3)CC2)ccc1Nc1ncc2c(n1)N(S(C)(=O)=O)c1ccccc1C(=O)N2C (stereo not shown) [Compound 185, 4-(4-((4-((1-(3-ethoxy-4-((5-methyl-11-(methylsulfonyl)-6-oxo-6,11-dihydro-5H-benzo[e]pyrimido[5,4-b][1,4]diazepin-2-yl)amino)phenyl)piperidin-4-yl)methyl)piperazin-1-yl)methyl)phenyl)-5-(5-ethyl-2,4-dihydroxyphenyl)-N-(1,1,1-trifluoropropan-2-yl)-4H-1,2,4-triazole-3-carboxamide]
[1]
  EC50: < 100 nM
[2]; U-87 MG, 72 h
  EC50: 100 to 1000 nM

## CCOc1cc(N2CCC(C(=O)NCCOCCOCCOc3ccc(Nc4cc(-n5nc(C(F)(F)F)c6c5CC(C)(C)CC6=O)ccc4C(N)=O)cc3)CC2)ccc1Nc1ncc2c(n1)N(C)c1ccccc1C(=O)N2C [Compound 131, N-(2-(2-(2-(4-((2-carbamoyl-5-(6,6-dimethyl-4-oxo-3-(trifluoromethyl)-4,5,6,7-tetrahydro-1H-indazol-1-yl)phenyl)amino)phenoxy)ethoxy)ethoxy)ethyl)-1-(4-((5,11-dimethyl-6-oxo-6,11-dihydro-5H-benzo[e]pyrimido[5,4-b][1,4]diazepin-2-yl)amino)-3-ethoxyphenyl)piperidine-4-carboxamide]
[1]
  EC50: 100 to 1000 nM
[2]; U-87 MG, 72 h
  EC50: > 1000 nM

## CCOc1cc(N2CCC(C(=O)N3CCN(Cc4ccc(-n5c(C(=O)NCCN6CCN(S(C)(=O)=O)CC6)nnc5-c5cc(C(C)C)c(O)cc5O)cc4)CC3)CC2)ccc1Nc1ncc2c(n1)N(S(C)(=O)=O)c1ccccc1C(=O)N2C [Compound 174, 5-(2,4-dihydroxy-5-isopropylphenyl)-4-(4-((4-(1-(3-ethoxy-4-((5-methyl-11-(methylsulfonyl)-6-oxo-6,11-dihydro-5H-benzo[e]pyrimido[5,4-b][1,4]diazepin-2-yl)amino)phenyl)piperidine-4-carbonyl)piperazin-1-yl)methyl)phenyl)-N-(2-(4-(methylsulfonyl)piperazin-1-yl)ethyl)-4H-1,2,4-triazole-3-carboxamide]
[1]
  EC50: < 100 nM
[2]; U-87 MG, 72 h
  EC50: < 100 nM

## CCOc1cc(N2CCC(CN3CC4(CCN(Cc5ccc(-n6c(O)nnc6-c6cc(C(C)C)c(O)cc6O)cc5)CC4)C3)CC2)ccc1Nc1ncc2c(n1)N(S(C)(=O)=O)c1ccccc1C(=O)N2C [Compound 183, 2-((4-(4-((7-(4-(3-(2,4-dihydroxy-5-isopropylphenyl)-5-hydroxy-4H-1,2,4-triazol-4-yl)benzyl)-2,7-diazaspiro[3.5]nonan-2-yl)methyl)piperidin-1-yl)-2-ethoxyphenyl)amino)-5-methyl-11-(methylsulfonyl)-5,11-dihydro-6H-benzo[e]pyrimido[5,4-b][1,4]diazepin-6-one]
[1]
  EC50: < 100 nM
[2]; U-87 MG, 72 h
  EC50: 100 to 1000 nM

## CCOc1cc(N2CCC(CN3CCC4(CC3)CN(Cc3ccc(-n5c(O)nnc5-c5cc(C(C)C)c(O)cc5O)cc3)C4)CC2)ccc1Nc1ncc2c(n1)N(S(C)(=O)=O)c1ccccc1C(=O)N2C [Compound 184, 2-((4-(4-((2-(4-(3-(2,4-dihydroxy-5-isopropylphenyl)-5-hydroxy-4H-1,2,4-triazol-4-yl)benzyl)-2,7-diazaspiro[3.5]nonan-7-yl)methyl)piperidin-1-yl)-2-ethoxyphenyl)amino)-5-methyl-11-(methylsulfonyl)-5,11-dihydro-6H-benzo[e]pyrimido[5,4-b][1,4]diazepin-6-one]
[1]
  EC50: < 100 nM
[2]; U-87 MG, 72 h
  EC50: 100 to 1000 nM

## CCOc1cc(N2CCC(C(=O)N3CCC(COc4ccc(-c5ccc(NC(=O)c6ccc(OC)c(-c7cccc(OC)c7)c6)cc5)cc4)CC3)CC2)ccc1Nc1ncc2c(n1)N(S(C)(=O)=O)c1ccccc1C(=O)N2C [Compound 146, N-(4′-((1-(1-(3-ethoxy-4-((5-methyl-11-(methylsulfonyl)-6-oxo-6,11-dihydro-5H-benzo[e]pyrimido[5,4-b][1,4]diazepin-2-yl)amino)phenyl)piperidine-4-carbonyl)piperidin-4-yl)methoxy)-[1,1′-biphenyl]-4-yl)-3′,6-dimethoxy-[1,1′-biphenyl]-3-carboxamide]
[1]
  EC50: > 1000 nM
[2]; U-87 MG, 72 h
  EC50: > 1000 nM

## CCNC(=O)c1nnc(-c2cc(CC)c(O)cc2OC)n1-c1ccc(CN2CCN(CC3CCN(C(=O)C4CCN(c5ccc(Nc6ncc7c(n6)N(S(C)(=O)=O)c6ccccc6C(=O)N7C)c(OCC)c5)CC4)CC3)CC2)cc1 [Compound 171, 4-(4-((4-((1-(1-(3-ethoxy-4-((5-methyl-11-(methylsulfonyl)-6-oxo-6,11-dihydro-5H-benzo[e]pyrimido[5,4-b][1,4]diazepin-2-yl)amino)phenyl)piperidine-4-carbonyl)piperidin-4-yl)methyl)piperazin-1-yl)methyl)phenyl)-N-ethyl-5-(5-ethyl-4-hydroxy-2-methoxyphenyl)-4H-1,2,4-triazole-3-carboxamide]
[1]
  EC50: > 1000 nM
[2]; U-87 MG, 72 h
  EC50: > 1000 nM

## CCNC(=O)c1nnc(-c2cc(C(C)C)c(O)cc2O)n1-c1ccc(CN2CCN(c3ccc(Nc4ncc5c(n4)N(C4CCCC4)c4ccccc4C(=O)N5C)c(OCC)c3)CC2)cc1 [Compound 190, 4-(4-((4-(4-((11-cyclopentyl-5-methyl-6-oxo-6,11-dihydro-5H-benzo[e]pyrimido[5,4-b][1,4]diazepin-2-yl)amino)-3-ethoxyphenyl)piperazin-1-yl)methyl)phenyl)-5-(2,4-dihydroxy-5-isopropylphenyl)-N-ethyl-4H-1,2,4-triazole-3-carboxamide]
[1]
  EC50: 100 to 1000 nM
[2]; U-87 MG, 72 h
  EC50: 100 to 1000 nM
